Test [1] concerns the target T1, HMG-CoA reductase (rat liver microsomes) (Rattus norvegicus, UniProt P51639).
T1 construct: taking out liver of male rat, washing with KESD buffer solution; from tissue; host or cells: liver of male rat (microsomal fraction, glycerol/37 °C treatment, 35-50% ammonium sulfate fraction)
T1 sequence (P51639 1-887): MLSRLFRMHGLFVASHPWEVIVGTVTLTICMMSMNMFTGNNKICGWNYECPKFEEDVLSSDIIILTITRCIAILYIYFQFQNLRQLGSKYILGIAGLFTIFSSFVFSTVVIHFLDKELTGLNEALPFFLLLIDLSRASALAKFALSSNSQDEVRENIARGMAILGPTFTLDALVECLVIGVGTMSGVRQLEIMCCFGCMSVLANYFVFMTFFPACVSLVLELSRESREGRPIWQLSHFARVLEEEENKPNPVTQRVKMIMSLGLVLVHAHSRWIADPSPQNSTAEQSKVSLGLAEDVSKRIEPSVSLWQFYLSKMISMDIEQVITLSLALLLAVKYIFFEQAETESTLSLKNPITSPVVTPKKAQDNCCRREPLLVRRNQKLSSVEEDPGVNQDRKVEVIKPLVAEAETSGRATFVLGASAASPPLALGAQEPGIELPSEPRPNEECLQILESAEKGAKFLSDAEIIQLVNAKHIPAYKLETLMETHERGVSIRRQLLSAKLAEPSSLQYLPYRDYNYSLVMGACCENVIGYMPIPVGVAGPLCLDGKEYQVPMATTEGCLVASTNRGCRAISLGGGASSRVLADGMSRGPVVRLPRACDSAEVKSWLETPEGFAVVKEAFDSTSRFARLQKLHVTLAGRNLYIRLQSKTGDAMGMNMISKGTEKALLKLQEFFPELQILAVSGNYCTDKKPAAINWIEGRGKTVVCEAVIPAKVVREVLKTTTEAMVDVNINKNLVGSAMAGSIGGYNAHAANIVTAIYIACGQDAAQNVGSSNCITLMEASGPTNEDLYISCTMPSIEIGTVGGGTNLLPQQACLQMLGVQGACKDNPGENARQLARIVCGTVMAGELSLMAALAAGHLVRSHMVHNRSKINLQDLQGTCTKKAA
Put plainly: Test of activity of inhibiting HMG-CoA reductase (rate of decline of OD340). Format: biochemical. The following applies: final concentration in system 80 μg/mL. The protocol: Rat liver microsomes (HMG-CoA reductase), could be commercially available or prepared by the following preparation method: taking out liver of male rat, washing with KESD buffer solution, centrifuging under 1200 g for 15 minutes, collecting supernatant, then centrifuging under 105,000 g twice, 90 minutes for each time, and collecting centrifugation deposit. The centrifugation deposit was added with 8.3% of glycerol, heated with 37° C. bath for 1 hour. The crude product of rat liver microsomes was purified with saturated ammonium sulfate, and 35-50% of purified fraction was collected. The purified fraction obtained could be stored in −80° C. refrigerator.
Compound of Formula II was dissolved in 75% ethanol solution, with initial concentration of 8.0 mg/mL, and diluted in gradient manner, to reach 4.0 mg/mL, 2.0 mg/mL, 1.0 mg/mL; lovastatin was used as positive control, dissolved with 75% ethanol solution to reach concentration of 2.0 mg/mL; in the test system, total volume was 250 μL, concentrations of ingredients were separately: potassium chloride 200 mM, potassium dihydrogen phosphate 160 mM, ethylenediamine tetraacetic acid 4 mM, dithiothreitol 10 mM, […] and 3-hydroxy-3-methylglutary coenzyme A as two substrates separately had concentrations of: 200 μM and 50 μM, pH6.8, 30 μL of enzyme was added, 4 test groups were separately added with 10 μL of new compound solutions with different concentrations, the positive control group was added with 10 μL of lovastatin solution, the blank control group was added with 10 μL of 75% ethanol solution, and dynamitic changes of OD340 were detected with Versamax ELISA at 37° C. condition. The rate of decline of OD340 (expressed in slope value) as detected within 5 minutes was used to evaluate the activity of HMG-CoA reductase, and then to evaluate the activity of enzyme inhibitor and the results were shown in Table 2.

The target in test [2] is T2, Porcine pancreatic lipase (Sus scrofa, UniProt P00591).
T2 construct: purchased Sigma
T2 sequence (P00591 1-450): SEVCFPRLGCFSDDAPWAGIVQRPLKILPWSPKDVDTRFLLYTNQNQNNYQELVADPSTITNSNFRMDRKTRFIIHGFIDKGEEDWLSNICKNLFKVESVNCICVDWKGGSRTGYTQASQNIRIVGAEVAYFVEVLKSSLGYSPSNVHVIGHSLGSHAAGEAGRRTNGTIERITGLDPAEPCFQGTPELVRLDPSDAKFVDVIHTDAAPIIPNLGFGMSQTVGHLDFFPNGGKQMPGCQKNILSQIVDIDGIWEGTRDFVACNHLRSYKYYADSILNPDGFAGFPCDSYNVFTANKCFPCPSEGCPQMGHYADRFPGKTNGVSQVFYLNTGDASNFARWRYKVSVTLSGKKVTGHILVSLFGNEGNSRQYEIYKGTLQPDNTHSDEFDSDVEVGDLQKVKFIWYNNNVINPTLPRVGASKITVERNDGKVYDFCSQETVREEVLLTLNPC
Put plainly: Test of activity of inhibiting lipase (copper oleate colorimetry, olive oil substrate). Format: biochemical, pig. The following applies: final concentration of inhibitor in the system 1.85 μg/mL. The protocol: 2.1 Preparation of light absorbance working curve for fatty acid: a series of oleic acid-toluene solutions with different concentrations (0-3.5 mmol/L, separately being 0, 0.225, 0.45, 0.675, 0.9, 1.125, 1.35, 1.8, 2.25, 2.7, and 3.5 mmol/L), 4 mL of each was taken and placed in conical flask, added with 1 mL of color developing agent, stirred with magnetic force for 3 minutes, oleic acid molecules and copper ions formed a green complex compound, after centrifugation, organic phase of upper layer was taken and measured at 714 nm to determine light absorbance.
2.2 Enzyme solution was 0.5 mg/mL pancreatic lipase solution; buffer solution was 0.07M NaH2PO4—K2HPO4 phosphate buffer solution (pH 7.0); color developing agent was 5% copper acetate solution, which was regulated with pyridine to have pH 6.1.
3 mL of 0.07M phosphate buffer solution and 1 mL of olive oil were pre-heated at a constant temperature of 37° C. for 5 minutes in water bath under agitation with a magnetic stirrer, added with 1.3 mL of enzyme solution (negative control was that without enzyme inhibitor; positive control is that added with 100 μL of 0.1 mg/mL orlistat solution; […]), stirred with magnetic force for 10 minutes, immediately added with 8 mL of toluene, stirred continuously for 2 minutes, the reaction was terminated, the generated oleic acid was extracted. The solutions were transferred to centrifuge tube, centrifuged under 4000 rpm for 10 minutes, and the organic phase and water phase were layered and clarified. 4 mL of the upper layer organic phase was taken and placed in a small conical flask, added with 1 mL of color developing agent, stirred with magnetic stirrer for 3 minutes, the generated oleic acid reacted with copper ions to form green complex compound. After centrifugation under 4000 rpm for 10 minutes, the upper layer of toluene solution containing copper oleate was taken, and measured with a spectrophotometer at 714 nm to determine its light absorbance. A blank solution without lipase was prepared as control by the same method, and concentration of fatty acid could be determined by referring to light absorbance working curve of oleic acid.
Enzyme activity unit of lipase was defined as follows: an enzyme amount to release 1 μmol fatty acid under certain condition was defined as 1 unit of lipase activity (U).
The following formula was used to calculate enzyme activity: X=(cV)/(tV′)
wherein: X represents enzyme activity of lipase, U/mL; c represents concentration of fatty acid, […]; V represents volume of fatty acid solution, mL; V′ represents amount of enzyme solution, mL; t represents action time, minute. Inhibition rate=[(enzyme activity of lipase−enzyme activity of lipase after inhibition)/enzyme activity of lipase]×100%

In test [1], `CC[C@H](C)C(=O)O[C@H]1C[C@@H](C)C=C2C=C[C@H](C)[C@H](CC[C@@H]3C[C@@H](O)CC(=O)O3)[C@H]21` [Lovastatin, lovastatin, reference compound] registered an Inhibition rate of 54.4%. For the same molecule, the “Slope (rate of decline of OD340)” value in test [1] (blank control slope 16.0) was 7.3.

Regarding `CCCCCCCCCCC[C@@H](C[C@@H]1OC(=O)[C@H]1CCCCCC)OC(=O)[C@H](CC(C)C)NC=O` [Orlistat, orlistat, reference compound], the Absorbance in test [2] (714 nm, blank control 0.6680) worked out at 0.2042. The same molecule displayed an Inhibition rate in test [2] of 69.84%. Moreover, the Enzyme activity in test [2] (blank control 1.69) was found to be 0.50 U/mL. In test [2] (blank control 2.75), the “Concentration of generated oleic acid” value is listed as 0.81 mM.

The values are drawn from patent US11845774B2, “Sterol derivatives and preparation method and uses thereof” (BEIJING PEKING UNIVERSITY WBL BIOTECH CO., LTD., priority 2011, dated 2023).
